In patent US20250101041A1, “POSITIVE ALLOSTERIC MODULATORS OF THE MUSCARINIC ACETYLCHOLINE RECEPTOR M4” (Vanderbilt University, priority 2022, published 2025) one finds Emax and EC50 data, which are given here for 25 compounds.

In general, Emax refers to the greatest response seen or fitted, relative to the assay's reference. What is called EC50 is the concentration at which the effect is half-maximal.

The assay has as its target T1, human mAChR M4 (Homo sapiens, UniProt P08173).
T1 construct: expressed in transfected cells; host or cells: CHO-K1 (American Type Culture Collection), stably expressing hM4 and Gqi5
T1 sequence (P08173 1-479): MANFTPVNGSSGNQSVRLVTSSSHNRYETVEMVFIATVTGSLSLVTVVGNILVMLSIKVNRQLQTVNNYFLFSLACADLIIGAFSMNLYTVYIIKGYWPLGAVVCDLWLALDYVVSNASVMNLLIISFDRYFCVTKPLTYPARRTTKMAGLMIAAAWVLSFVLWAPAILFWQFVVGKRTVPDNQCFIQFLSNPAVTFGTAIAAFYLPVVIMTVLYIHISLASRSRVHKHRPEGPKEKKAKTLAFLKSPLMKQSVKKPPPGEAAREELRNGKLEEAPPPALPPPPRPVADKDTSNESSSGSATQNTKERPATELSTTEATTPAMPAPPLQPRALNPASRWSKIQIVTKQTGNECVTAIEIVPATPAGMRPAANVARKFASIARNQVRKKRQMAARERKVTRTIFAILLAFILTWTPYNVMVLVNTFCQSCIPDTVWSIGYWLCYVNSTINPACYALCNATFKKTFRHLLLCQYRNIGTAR
Nature of the assay: mAChR M4 cell-based functional assay: calcium mobilization (Fluo-4, FDSS), potentiation of EC20 acetylcholine response in hM4-Gqi5 CHO-K1 cells. The note with it: human M4; for Emax at 30 µM: CHO-K1, % ACh maximum at 30 μM; for EC50: potentiation of EC20 acetylcholine response, calcium mobilization. The gist of the method:
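Readout is the fluorescence-ratio rise at 1 Hz on FDSS, with PAM activity taken as concentration-dependent enhancement of the EC20 acetylcholine response, fitted four-parameter for EC50/Emax. hM4-Gqi5 CHO-K1 cells carried Fluo-4 AM dye; test compounds (11 points, 1:3) preceded EC20 acetylcholine additions at 144 s and 230 s.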

Structures are written as SMILES.

With `Cc1cc2nccc(=O)n2nc1N1CCc2ncc(-c3cccc4[nH]cc(C)c34)cc2C1` [Compound 1-435, 8-methyl-7-(3-(3-methyl-1H-indol-4-yl)-7,8-dihydro-1,6-naphthyridin-6(5H)-yl)-4H-pyrimido[1,2-b]pyridazin-4-one], the Emax at 30 µM came to 51% and the EC50 was found to be 1980 nM.

For `Cc1cc(=O)n2nc(N3CCc4ncc(-c5cc(F)ccc5C)cc4C3)c(C)c(C)c2n1` [Compound 1-138, 7-(3-(5-fluoro-2-methylphenyl)-7,8-dihydro-1,6-naphthyridin-6(5H)-yl)-2,8,9-trimethyl-4H-pyrimido[1,2-b]pyridazin-4-one], the Emax at 30 µM stood at 87% and the EC50 amounted to 190 nM.

`COc1ccnc(Nc2cnc3c(c2)CN(c2nn4c(=O)ccnc4cc2C)CC3)n1` [Compound 2-140, 7-(3-((4-methoxypyrimidin-2-yl)amino)-7,8-dihydro-1,6-naphthyridin-6(5H)-yl)-8-methyl-4H-pyrimido[1,2-b]pyridazin-4-one]: the Emax at 30 µM was determined as 56% and the EC50 turned out to be 985 nM.

Turning to `Cc1cc(=O)n2nc(N3CCc4ncc(N5CCCn6nccc65)cc4C3)c(C)cc2n1` [Compound 2-10, 7-(3-(6,7-dihydropyrazolo[1,5-a]pyrimidin-4(5H)-yl)-7,8-dihydro-1,6-naphthyridin-6(5H)-yl)-2,8-dimethyl-4H-pyrimido[1,2-b]pyridazin-4-one], the Emax at 30 µM turned out to be 94% and the EC50 turned out to be 70 nM.

Turning to `Cc1ccc(-c2cnc3c(c2)CN(c2nn4c(=O)ccnc4c(C)c2C)CC3)cn1` [Compound 1-61, 8,9-Dimethyl-7-(3-(6-methylpyridin-3-yl)-7,8-dihydro-1,6-naphthyridin-6(5H)-yl)-4H-pyrimido[1,2-b]pyridazin-4-one], the Emax at 30 µM came out at 96% and the EC50 came to 71 nM.

For the compound `Cc1cc(=O)n2nc(N3CCc4ncc(-c5ccc(C)c(F)c5)cc4C3)c(C)cc2n1` [Compound 1-206, 7-(3-(3-fluoro-4-methylphenyl)-7,8-dihydro-1,6-naphthyridin-6(5H)-yl)-2,8-dimethyl-4H-pyrimido[1,2-b]pyridazin-4-one], the Emax at 30 µM came to 71% and the EC50 was 409 nM.

For the compound `Cc1cc2nccc(=O)n2nc1N1CCc2ncc(-c3cn(C)nc3C)cc2C1` [Compound 1-2, 7-(3-(1,3-dimethyl-1H-pyrazol-4-yl)-7,8-dihydro-1,6-naphthyridin-6(5H)-yl)-8-methyl-4H-pyrimido[1,2-b]pyridazin-4-one], the Emax at 30 µM came to 87% and the EC50 came out at 501 nM.

As for `Cc1cc2nccc(=O)n2nc1N1CCc2ncc(Nc3ccnnc3)cc2C1` [Compound 2-136, 8-methyl-7-(3-(pyridazin-4-ylamino)-7,8-dihydro-1,6-naphthyridin-6(5H)-yl)-4H-pyrimido[1,2-b]pyridazin-4-one], the Emax at 30 µM was found to be 101% and the EC50 was 308 nM.

In the case of `Cc1c(N2CCc3ncc(-c4cc(F)ncc4F)cc3C2)nn2c(=O)ccnc2c1C` [Compound 1-268, 7-(3-(2,5-difluoropyridin-4-yl)-7,8-dihydro-1,6-naphthyridin-6(5H)-yl)-8,9-dimethyl-4H-pyrimido[1,2-b]pyridazin-4-one], the Emax at 30 µM came to 83% and the EC50 came to 230 nM.

In the case of `CCc1cnc2cc(C)c(N3CCc4ncc(C(F)(F)F)cc4C3)nn2c1=O` [Compound 1-24, 3-Ethyl-8-methyl-7-(3-(trifluoromethyl)-7,8-dihydro-1,6-naphthyridin-6(5H)-yl)-4H-pyrimido[1,2-b]pyridazin-4-one], the Emax at 30 µM was found to be 75% and the EC50 turned out to be 309 nM.

On to `Cc1cc2nccc(=O)n2nc1N1CCc2ncc(Nc3c(F)cncc3F)cc2C1` [Compound 2-154, 7-(3-((3,5-difluoropyridin-4-yl)amino)-7,8-dihydro-1,6-naphthyridin-6(5H)-yl)-8-methyl-4H-pyrimido[1,2-b]pyridazin-4-one], for which the Emax at 30 µM is 90% and the EC50 was determined as 41 nM.

With `Cc1cc(=O)n2nc(N3CCc4ncc(-c5cnn6ccccc56)cc4C3)c(C)c(C)c2n1` [Compound 1-181, 2,8,9-trimethyl-7-(3-(pyrazolo[1,5-a]pyridin-3-yl)-7,8-dihydro-1,6-naphthyridin-6(5H)-yl)-4H-pyrimido[1,2-b]pyridazin-4-one], the Emax at 30 µM stood at 95% and the EC50 turned out to be 648 nM.

For `Cc1cc(F)ccc1-c1cnc2c(c1)CN(c1nn3c(=O)ccnc3c(C)c1C)CC2` [Compound 1-264, 7-(3-(4-fluoro-2-methylphenyl)-7,8-dihydro-1,6-naphthyridin-6(5H)-yl)-8,9-dimethyl-4H-pyrimido[1,2-b]pyridazin-4-one], the Emax at 30 µM is 98% and the EC50 was determined as 222 nM.

For the compound `Cc1cncc(-c2cnc3c(c2)CN(c2nn4c(=O)cc(C)nc4c(C)c2C)CC3)c1` [Compound 1-127, 2,8,9-trimethyl-7-(3-(5-methylpyridin-3-yl)-7,8-dihydro-1,6-naphthyridin-6(5H)-yl)-4H-pyrimido[1,2-b]pyridazin-4-one], the Emax at 30 µM amounted to 86% and the EC50 was found to be 1240 nM.

Consider `Cc1cc(=O)n2nc(N3CCc4ncc(-c5ccccc5C)cc4C3)c(C)cc2n1` [Compound 1-237, 2,8-dimethyl-7-(3-(o-tolyl)-7,8-dihydro-1,6-naphthyridin-6(5H)-yl)-4H-pyrimido[1,2-b] pyridazin-4-one], for which the Emax at 30 µM came out at 100% and the EC50 was determined as 365 nM.

Take `Cc1cc(C(F)F)ncc1-c1cnc2c(c1)CN(c1nn3c(=O)ccnc3cc1C)CC2` [Compound 1-375, 7-(3-(6-(difluoromethyl)-4-methylpyridin-3-yl)-7,8-dihydro-1,6-naphthyridin-6(5H)-yl)-8-methyl-4H-pyrimido [1,2-b]pyridazin-4-one]: the Emax at 30 µM was 75% and the EC50 was determined as 273 nM.

On to `Cc1cc2nccc(=O)n2nc1N1CCc2ncc(-c3cn(C(F)F)nc3C)cc2C1` [Compound 1-417, 7-(3-(1-(difluoromethyl)-3-methyl-1H-pyrazol-4-yl)-7,8-dihydro-1,6-naphthyridin-6(5H)-yl)-8-methyl-4H-pyrimido[1,2-b]pyridazin-4-one], for which the Emax at 30 µM turned out to be 82% and the EC50 amounted to 588 nM.

Consider `Cc1cc2nccc(=O)n2nc1N1CCc2ncc(NS(C)(=O)=O)cc2C1` [Compound 2-117, N-(6-(8-methyl-4-oxo-4H-pyrimido[1,2-b]pyridazin-7-yl)-5,6,7,8-tetrahydro-1,6-naphthyridin-3-yl)methanesulfonamide], for which the Emax at 30 µM was found to be 83% and the EC50 was 2760 nM.

For `Cc1cc2ncc(Cl)c(=O)n2nc1N1CCc2ncc(Nc3ccncc3F)cc2C1` [Compound 2-157, 3-chloro-7-(3-((3-fluoropyridin-4-yl)amino)-7,8-dihydro-1,6-naphthyridin-6(5H)-yl)-8-methyl-4H-pyrimido[1,2-b]pyridazin-4-one], the Emax at 30 µM was found to be 90% and the EC50 came to 3 nM.

On to `COCc1cc(=O)n2nc(N3CCc4ncc(-c5ccc(C)nc5)cc4C3)c(C)cc2n1` [Compound 1-314, 2-(methoxymethyl)-8-methyl-7-(3-(6-methylpyridin-3-yl)-7,8-dihydro-1,6-naphthyridin-6(5H)-yl)-4H-pyrimido[1,2-b]pyridazin-4-one], for which the Emax at 30 µM was found to be 96% and the EC50 came out at 109 nM.

Turning to `Cc1c(N2CCc3ncc(-c4ccc5nccn5c4)cc3C2)nn2c(=O)ccnc2c1C` [Compound 1-225, 7-(3-(imidazo[1,2-a]pyridin-6-yl)-7,8-dihydro-1,6-naphthyridin-6(5H)-yl)-8,9-dimethyl-4H-pyrimido[1,2-b]pyridazin-4-one], the Emax at 30 µM is 66% and the EC50 was 232 nM.

As to `Cc1cc(F)ncc1-c1cnc2c(c1)CN(c1nn3c(=O)ccnc3cc1C)CC2` [Compound 1-398, 7-(3-(6-fluoro-4-methylpyridin-3-yl)-7,8-dihydro-1,6-naphthyridin-6(5H)-yl)-8-methyl-4H-pyrimido[1,2-b]pyridazin-4-one], the Emax at 30 µM amounted to 93% and the EC50 is 169 nM.

With `Cc1cc(=O)n2nc(N3CCc4ncc(N5CC6CC5CO6)cc4C3)c(C)cc2n1` (centres unmarked) [Compound 2-42, 7-(3-(2-oxa-5-azabicyclo[2.2.1]heptan-5-yl)-7,8-dihydro-1,6-naphthyridin-6(5H)-yl)-2,8-dimethyl-4H-pyrimido[1,2-b]pyridazin-4-one], the Emax at 30 µM was 77% and the EC50 was 850 nM.

Consider `Cc1cc2ncc(C3CCCC3)c(=O)n2nc1N1CCc2ncc(C(F)(F)F)cc2C1` [Compound 1-23, 3-Cyclopentyl-8-methyl-7-(3-(trifluoromethyl)-7,8-dihydro-1,6-naphthyridin-6(5H)-yl)-4H-pyrimido[1,2-b]pyridazin-4-one], for which the Emax at 30 µM was 75% and the EC50 was found to be 363 nM.

`Cc1cc(=O)n2nc(N3CCc4ncc(-c5ccc(F)c(F)c5)cc4C3)c(C)c(C)c2n1` [Compound 1-205, 7-(3-(3,4-difluorophenyl)-7,8-dihydro-1,6-naphthyridin-6(5H)-yl)-2,8,9-trimethyl-4H-pyrimido[1,2-b]pyridazin-4-one]: the Emax at 30 µM came to 81% and the concentration for a half-maximal effect (EC50) worked out at 1240 nM.
